Earlier results as cited in US20190151634A1, “TREATMENT OF EXCESSIVE MENSTRUAL BLOOD LOSS BY FEMININE SANITARY PRODUCTS MEDICATED WITH HEMOSTATIC AGENT” (ARSTAT, INC., priority 2011, published 2019).

Key:
[1] = locally administered, without detectable plasma drug levels
[2] = mouthwash, compared to placebo
[3] = oral, 6 g/day (EMEA review)
[4] = after administration of an oral tablet

plasma concentrations (after a mouth rinse)	saliva concentrations, maximum level (after a mouth rinse)	time saliva concentration remained at a therapeutic level (after a mouth rinse)	drug in saliva samples [4]	mean drug plasma concentrations [4] [ng/mL]	Molecule	postoperative blood loss [1]	incidence of postoperative bleeding complications [2]	risk of gastrointestinal adverse events [3]
–	–	–	–	–	aprotinin	Reduction of the postoperative blood loss	–	–
below 2 mcg/mL	above 200 mcg/mL	more than two hours	not detected	7000	NC[C@H]1CC[C@H](C(=O)O)CC1 [tranexamic acid]	–	reduce the incidence of postoperative bleeding complications	increased
